# Measured values published in patent US9737502B2, “Calebin A for hepatic steatosis” (SAMI LABS LIMITED, priority 2011, dated 2017).
# Tests used:
# TNF-α [1] = assay: Intracellular TNF-α in LPS-stimulated murine neutrophils (flow cytometry); type: cell-based; conditions: for Expression of TNF-α Mean ± S.E: LPS Control 2.62 ± 0.01
# Description: The present inventors also adduce extra evidence to support the ability of Calebin A to suppress intracellular TNF and extracellular IL-1β in murine neutrophil systems (Table II, Table III). Neutrophils are isolated by histopaque gradient method tested for their ability to produce in vitro TNF-α following stimulation with Lipopolysaccharide (LPS). The cells were incubated with phycoerythrin (PE)-labeled anti-mouse TNF-α in the dark, and after being washed with sterile PBS, samples were resuspended in PBS (pH 7.4) and acquired directly on the flow cytometer (BDLSR; Becton Dickinson). A fluorescence trigger was set on the PE […] parameter of the gated neutrophil populations (10,000 events). Rolipram at 100 μg/ml was used as standard inhibitor of TNF-α in this study. Fluorescence compensation, data analysis, and data presentation were performed using Cell Quest Pro software (Becton Dickinson).
# TNF-α [2] = assay: Estimation of TNF-α in adipocyte supernatant by ELISA; type: cell-based; conditions: human adipocytes
# Description: (§1) 3T3-L1 cells approximately 60×10^4 cells are seeded for 48-72 hrs to get 70-80% confluence. After 48 hrs 200 μl of AIM (Adipogenesis induction medium) freshly prepared is added. 72 hrs later 200 μl APM (Adipogenesis progression medium) with the test compounds in different concentrations is added to the wells. The cells are incubated for 48 hrs in a humidified atmosphere (37° C.) of 5% CO2 and 95% air. The supernatant is collected and stored for the estimation of leptin, adiponectin, IL-6 and TNF-α by ELISA. Cells are fixed by adding 100 μl of 10% formalin and ORO staining is done. OD is read at 492 nm in microplate reader. The results are expressed as IC50 values using Graphpad prism software.
# (§2) The percentage of inhibition of adipogenesis is calculated as follows, % inhibition=C−T/[…] Where C-absorbance of Oil red 0 in differentiating/undifferentiated cells T-absorbance of Oil Red-O in sample treated differentiating/undifferentiated cells. The estimation of leptin, adiponectin, IL-6 and TNF-α is done according to user's manual from R&D Systems.
# adiponectin = assay: Estimation of adiponectin in adipocyte supernatant by ELISA; type: cell-based; conditions: human adipocytes
# Description: as §1, §2
# mice = assay: Acute oral toxicity of Calebin A; type: in vivo
# Description: No mortality was observed up to 2000 mg/kg p.o. in mice up to two weeks of observation.
# IL-6 = assay: Serum IL-6 in LPS-injected mice after 6 days oral treatment (ELISA); type: in vivo, Swiss albino mice; conditions: graded doses, then LPS 1 mg/kg i.v., serum 90 min after LPS
# Description: The present inventors also adduce study data on the ability of Calebin A to reduce expression of Extracellular TNF-α, IL-1 beta [FIG. 6] and IL-6 [FIG. 7] in serum from treated mice (in-vivo models). Swiss albino male mice aged 6-8 weeks were maintained at 22±2° C. under 12/12 h light dark cycle. Mice received oral treatment of test drugs at graded doses (w/v) for 6 days, followed by intravenous injection of 1 mg/kg of LPS according to the method described by Brieva A, Guerrero A, Alonso-Lebrero J L and Pivel J P. 2001. Immunoferon, a glycoconjugate of natural origin, inhibits LPS-induced TNF-α production and inflammatory responses. International Immunopharmacology 1, 1979-1987. Six mice were employed in each group and experiments were performed in triplicates. TNF-α, IL-1 beta and IL-6 production was evaluated by a commercial ELISA kits (R&D Systems) in serum from treated mice, 90 min after LPS injection. Rolipram at 30 mg/kg was used as standard drug.
# [3] = system: HFD induced hepatic steatosis; assay: Liver histopathology and hepatic triglyceride in HFD-fed mice; type: in vivo, C57BL/6J mice; conditions: Calebin A 0.25% and 1% in HFD, dose dependant
# Description: A portion of the livers in different groups were dissected and fixed in 10% buffered formalin for at least 24 hours, then dehydrated with a sequence of ethanol solutions and processed for embedding in paraffin. Sections of 5-6 μm in thickness were cut, deparaffinized, rehydrated, stained with haematoxylin & eosin (H&E) and subjected to pbotomicroscopic assessment. Liver histopathology was evaluated according to the NAFLD system outlined in Kleiner, D. E., Brunt, E. M., Van, N. M., Behling, C. et al., Design and validation of a histological scoring system for nonalcoholic fatty liver disease. Hepatology 2005, 41, 1313-1321. The score of hepatocellular ballooning was graded 0-2 based on the number of balloon cell per field at ×200 magnification (grading: 0=no balloon cell; 1=few balloon cells; 2=prominent balloon cells) in H&E stained sections. The number of infiltrating immune cells was counted at 200× magnification in five different areas. In the HFD group significant inflammatory degeneration, hepatocellular ballooning degeneration and triglyceride accumulation were seen. Quantitative analysis indicated elevated hepatic triglyceride levels as compared to the ND group. Administration of Calebin A at concentrations of 0.25% and 1% attenuated HFD induced triglyceride, hepatocellular ballooning degeneration and inflammatory infiltration in a dose dependant manner. Accordingly, in another most preferred embodiment, the present invention relates to a method of treating high fat diet (HFD) induced hepatic steatosis in mammals, said method comprising step of bringing into contact HFD affected hepatic cells marked by inflammatory infiltration, hepatocellular ballooning degeneration and high triglyceride levels with Calebin A derived from orally administering to said mammals effective concentrations of Calebin A to bring about the effect of attenuation of hepatic steatosis in a dose dependant manner. Alternatively, in another most preferred embodiment, the present invention also relates to Calebin A for treating high fat diet (HFD) induced hepatic steatosis in mammals.
smiles,measurement,setting,value
COc1cc(/C=C/C(=O)COC(=O)/C=C/c2ccc(O)c(OC)c2)ccc1O [Calebin A],% Activity (suppression of TNF-α expression),TNF-α [1]; 0.5 μg/ml,28.62%↓
same,Expression of TNF-α Mean ± S.E,TNF-α [1]; 0.5 μg/ml,1.87 ± 0.04
same,% Activity (suppression of TNF-α expression),TNF-α [1]; 1.0 μg/ml,35.11%↓
same,Expression of TNF-α Mean ± S.E,TNF-α [1]; 1.0 μg/ml,1.70 ± 0.02
same,% Activity (suppression of TNF-α expression),TNF-α [1]; 2.0 μg/ml,39.31%↓
same,Expression of TNF-α Mean ± S.E,TNF-α [1]; 2.0 μg/ml,1.59 ± 0.05
same,percentage inhibition of TNF-α,TNF-α [2]; 0.5 μg/ml,36.03%
same,percentage inhibition of TNF-α,TNF-α [2]; 1.0 μg/ml,40.81%
same,percentage inhibition of TNF-α,TNF-α [2]; 2.0 μg/ml,45.47%
same,percentage enhancement of adiponectin expression,adiponectin; 0.5 μg/ml,27.12%
same,percentage enhancement of adiponectin expression,adiponectin; 1.0 μg/ml,34.06%
same,percentage enhancement of adiponectin expression,adiponectin; 2.0 μg/ml,32.8%
same,Autonomic Nervous System: Atexia,"mice; mouse, in vivo, po",Atexia = Nil
same,Autonomic Nervous System: Diarrhea,"mice; mouse, in vivo, po",Diarrhea = Nil
same,Autonomic Nervous System: Motor Activity,"mice; mouse, in vivo, po",Motor Activity = Normal
same,Autonomic Nervous System: Respiration Rate,"mice; mouse, in vivo, po",Respiration Rate = Normal
same,Central Nervous System: Clonic Convulsions,"mice; mouse, in vivo, po",Clonic Convulsions = Nil
same,Central Nervous System: Excitation,"mice; mouse, in vivo, po",Excitation = Nil
same,Central Nervous System: Motor Activity,"mice; mouse, in vivo, po",Motor Activity = Nil
same,Central Nervous System: Tonic Convulsion,"mice; mouse, in vivo, po",Tonic Convulsion = Nil
same,Central Nervous System: Tremors,"mice; mouse, in vivo, po",Tremors = Nil
same,Dermal: Blanching,"mice; mouse, in vivo, po",Blanching = Nil
same,Dermal: Cyanosis,"mice; mouse, in vivo, po",Cyanosis = Nil
same,Dermal: Hyperaemia,"mice; mouse, in vivo, po",Hyperaemia = Nil
same,Food and Water (Intake and Excretion): Fecal Output,"mice; mouse, in vivo, po",Fecal Output = Normal
same,Food and Water (Intake and Excretion): Urine Output,"mice; mouse, in vivo, po",Urine Output = Normal
same,General Behaviour: Aggression,"mice; mouse, in vivo, po",Aggression = Nil
same,General Behaviour: Fear,"mice; mouse, in vivo, po",Fear = Nil
same,General Behaviour: General Locomotor Activity,"mice; mouse, in vivo, po",Normal
same,General Behaviour: General Movement,"mice; mouse, in vivo, po",General Movement = Normal
same,General Behaviour: Passive,"mice; mouse, in vivo, po",Passive = Nil
same,General Parameters: Diarrhea,"mice; mouse, in vivo, po",Diarrhea = Nil
same,General Parameters: Muscular Weakness,"mice; mouse, in vivo, po",Muscular Weakness = Nil
same,General Parameters: Pilo Erection,"mice; mouse, in vivo, po",Pilo Erection = Nil
same,General Parameters: Salivation,"mice; mouse, in vivo, po",Salivation = Nil
same,Reflexes: Corneal,"mice; mouse, in vivo, po",Corneal = No effect
same,Reflexes: Pinnal,"mice; mouse, in vivo, po",Pinnal = No effect
same,Respiratory System: Respiration Depth,"mice; mouse, in vivo, po",Respiration Depth = Normal
same,Respiratory System: Respiration Rate,"mice; mouse, in vivo, po",Respiration Rate = Normal
same,mortality,"mice; up to 2000 mg/kg p.o., up to two weeks of observation",No mortality
same,expression of IL-6 in serum,IL-6,effective in reducing
same,HFD induced hepatic triglyceride,[3],attenuated
same,inflammatory infiltration in liver,[3]; H&E,attenuated
same,hepatocellular ballooning degeneration,"[3]; H&E, NAFLD scoring",attenuated
